How the values were obtained:
rat brain PKC = test: PKC kinase activity, PepTag non-radioactive protein kinase assay; assay type: biochemical; conditions: PepTag gel; various dilutions of TPA; ether extract final dilution 1 in 5; crude sap and aqueous layer diluted 1/25
Method: The kinase activity of rat brain PKC (Promega) was determined using the Peptag™ Non-Radioactive Protein Kinase Kit (Promega). Using agarose gel electrophoresis the technique visualises the opposing electrostatic charge of a fluorescently labeled peptide ([sequence]) compared to the phosphorylated version of the same peptide.
The reaction mixture was separated by gel electrophoresis, showing migration of the unreacted substrate (a) to the anode (top), and the product (b), which is more negatively charged because of phosphorylation by PKC, moving towards the cathode (bottom).

PKCα = target: T1, PKCα (Homo sapiens, UniProt P17252); assay type: cell-based; conditions: HeLa, one hour
T1 construct: host or cells: HeLa cells
Method: (§1) Five EGFP-PKC isoforms (Clontech) were available for this experiment, enabling the screening of the three predominant PKC families (i.e. classical, novel and atypical PKCs). The members of the various PKC families are α, β, and γ (classical), θ (novel) and ζ (atypical).
(§2) HeLa cells were plated out in a 24-well plate containing coverslips and transfected with PKC isoforms fused to EGFP, using a commercially available effectine-transfection kit (QIAGEN, Pty. Ltd.). Cells were exposed to the transfection reagents for 16-24 hr. Subsequently, transfected cells were treated for one hour with TPA (100 ng/mL), bryostatin-1 (5 pg/mL), PEP003 (2.25 μg/mL; 5 μM) or PEP005 ([…]) 1.5 μM). Following treatment, cells were fixed on coverslips and mounted on glass slides. The slides were subsequently examined visually by fluorescence microscopy, photographed, and over 150 cells were counted/treatment/PKC isoform. Counted cells were classified according to the localisation of the PKC-EGFP fluorescence as either cytoplasmic or plasma membrane using ImagePro™ 4.1 (FIG. 5). […] The number of these cells was also counted.

PKCγ = target: T2, PKCγ (Homo sapiens, UniProt P05129); test: EGFP-PKC translocation in HeLa cells (PKCγ); assay type: cell-based; conditions: one hour
T2 construct: host or cells: HeLa cells
Method: as §1
as §2, with “counted. Results are presented as an average and standard deviation of percentages of cells (Table 1).” for “counted.”

[1] = test system: HIV-1 LAI strain in U1 cells; test: Activation of latent HIV from U1 cells (p24 ELISA); assay type: cell-based; conditions: 20 hr culture
Excerpt: A latently HIV-1 infected cell line (U1), derived from the promonocytic cell line U937 after infection with HIV-1 LAI strain, was used in these experiments. In the absence of activation, no or little virus (measured as p24 production) is produced by the U1 cell line. Phorbol esters are known to activate virus production from these cells (Tobiume et al., 1998) and so TPA/PMA was used as a positive control in these experiments.
Supernatants were collected and viral replication monitored by determination of the amounts of HIV p24 gag protein in the culture supernatants by ELISA, using a NEN Life Science HIV-1 p24 ELISA kit. p24 values were calculated from OD values using a standard curve.

[2] = test system: Human peripheral blood mononuclear cells; test: Phagocytic activity, nitroblue tetrazolium uptake; assay type: cell-based; conditions: 100 ng/mL, 20 min; controls <2%
Method: Human peripheral blood mononuclear cells (PBMC) prepared by standard Ficoll separation comprise approximately 5% monocytes. PBMC were incubated with dihydroethidium, a reduced form of the dye which becomes fluorescent when oxidized by a respiratory burst, then treated in 10% FCS-RPMI 1640 at 37° C. for 15 min with crude E. peplus extract diluted 1/1000 or 100 ng/mL TPA and analyzed by flow cytometry using conventional methods (Handbook of Flow Cytometry Methods, p. 151). The mean channel numbers for fluorescence were 618 (controls) and 818 (E. peplus extract diluted 1/1000). […] Phagocytic activity was determined by a conventional method (Hudson and Hay, Practical Immunology, 3rd edition, p. 74). […] The average of three fields gave figures of <2% (controls), 10% (TPA) and 8.7% (E. peplus sap) cells stained blue.

[3] = test system: Peripheral blood mononuclear cells (granulocytes, monocytes, lymphocytes); test: Respiratory burst, DCFH-DA H2O2 flow cytometry; assay type: cell-based; conditions: bisindolylmaleimide 10 ng/mL or 1 ng/mL
Method: Experiments were also carried out using 2′,7′-dichlorofluorescein diacetate (DCFH-DA) to measure the production of H2O2. (J P Robinson, Oxidative burst methods, in Handbook of Flow Cytometry Methods, Wiley-Liss Inc, pp 147-149, 1993). H2O2 oxidizes the non-fluorescent probe (DCFH-DA) to a fluorescent probe that can then be detected by a flow cytometer. Peripheral blood mononuclear cells (PBMC) were extracted from a donor blood sample by lysis of heparinized blood and used in a suspension of 1×10^6/mL of phosphate buffer, pH 7.3. The cells were then incubated with DCFH-DA (1 μL/mL of 20 mM stock) for 15 minutes to allow it to be taken up and trapped by hydrolysis with cellular esterases. The cells were then stimulated by test compounds for 15 min at 37° C. Controls included in the experiment were unloaded control (cells with no DCFH-DA) and loaded control (cells with DCFH-DA, but no stimulation). These were used to monitor the non-specific oxidation of unstimulated cells. The cells were then analyzed on the flow cytometer (excitation at 488 nm, emission at 525±20 nm), gating each sample for individual cell populations—granulocytes, monocytes and lymphocytes (Table 3).

[4] = test system: EBV in Burkitt's lymphoma cell lines (Mutul, BL74) and an LCL; test: EBV activation (VCA western blot) in Burkitt's lymphoma cell lines and LCL; assay type: cell-based
Method: To ensure that equal amounts of each sample were analyzed, the gels were stained with Coomassie blue and the loadings were adjusted to make them equal. […] Next the PEP003 and PEP004 were assayed on two Burkitt's lymphoma cell lines and an LCL. This time only concentrations of 10^−5 and 10^−7 were used.

CCCCCCCCCCCCCC(=O)O[C@@H]1[C@@H](C)[C@@]2(O)[C@@H](C=C(CO)C[C@]3(O)C(=O)C(C)=C[C@@H]23)C2C(C)(C)[C@@]21OC(C)=O (single isomer, unassigned) [TPA]
activation of PKC (FIG. 1) (rat brain PKC): showed activation of PKC | number of PKCα transfected cells displaying Golgi-like fluorescence (PKCα): increase in the number of cells displaying Golgi-like fluorescence | translocation of PKCα from cytoplasm to plasma membrane (PKCα; TPA 100 ng/mL, bryostatin-1 5 pg/mL, PEP003 2.25 μg/mL (5 μM)): translocated from the cytoplasm to the plasma membrane | number of PKCγ transfected cells displaying Golgi-like fluorescence (PKCγ): increase in the number of cells displaying Golgi-like fluorescence | translocation of PKCγ from cytoplasm to plasma membrane (PKCγ; TPA 100 ng/mL, bryostatin-1 5 pg/mL, PEP003 2.25 μg/mL (5 μM), PEP005 670 μg/mL (1.5 μM)): translocated from the cytoplasm to the plasma membrane | activation of HIV from U1 cells (p24 production) [1]: activated HIV from U1 cells | cells stained blue (NBT) [2]: 10% | respiratory burst with bisindolylmaleimide added [3]: blocked | induction of VCA in Mutul cells [4]: did not

From US9314458B2, “Topical use of ingenol-3-angelate or a salt thereof to treat skin cancer” (LEO Laboratories Limited, priority 2000, dated 2016)
